# According to ChEMBL document CHEMBL4619778, “Oligopeptides as Neuropeptide Y Y4 Receptor Ligands: Identification of a High-Affinity Tetrapeptide Agonist and a Hexapeptide Antagonist” (J Med Chem, 2020):
# Square brackets hold non-standard residues; d marks the D form. Peptide text beside a SMILES is read from it. ξ: configuration not given here. ξOrn = NCCCC(N)C(=O)O
# Key:
# [1] = target: T1, Neuropeptide Y receptor type 4 (Homo sapiens, UniProt P50391); assay: Displacement of [3H]UR-KK200 from human Y4 receptor expressed in CHO cells co-expressing Gqi5-mtAEQ measured after 90 mins by scintillation counting analysis; format: cell-based
# T1 sequence (P50391 whole entry): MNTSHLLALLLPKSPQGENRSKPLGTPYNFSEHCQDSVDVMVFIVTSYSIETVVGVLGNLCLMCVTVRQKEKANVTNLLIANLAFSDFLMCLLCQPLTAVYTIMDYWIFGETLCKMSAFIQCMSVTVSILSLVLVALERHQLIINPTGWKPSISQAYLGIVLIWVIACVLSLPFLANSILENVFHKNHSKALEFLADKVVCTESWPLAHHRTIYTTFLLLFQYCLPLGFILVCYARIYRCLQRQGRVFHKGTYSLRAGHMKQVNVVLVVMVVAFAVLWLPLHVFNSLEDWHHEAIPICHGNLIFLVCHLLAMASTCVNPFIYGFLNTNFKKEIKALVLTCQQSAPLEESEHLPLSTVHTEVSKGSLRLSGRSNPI
# [2] = target: T1, Neuropeptide Y receptor type 4; assay: (§1) Antagonist activity at human Y4 receptor expressed in CHO cells co-expressing Gqi5-mtAEQ assessed as inhibition of hPP-induced intracellular calcium mobilization preincubated for 15 mins followed by hPP addition and measured for 43 secs in presence of coelenterazine by aequorin-reporter gene based luminescence assay; format: functional, cell-based
# [3] = target: T1, Neuropeptide Y receptor type 4; assay: Antagonist activity at human Y4R expressed in HEK293T cells co-expressing ARRB2 assessed as inhibition of hPP-induced beta-arrestin2 recruitment preincubated for 20 mins followed by hPP addition and measured for 40 mins by D-luciferin based luminescence assay; format: cell-based; settings: HEK-293T
# [4] = target: T1, Neuropeptide Y receptor type 4; assay: Antagonist activity at human Y4R expressed in HEK293T cells co-expressing ARRB1 assessed as inhibition of hPP-induced beta-arrestin1 recruitment preincubated for 20 mins followed by hPP addition and measured for 40 mins by D-luciferin based luminescence assay; format: cell-based; settings: HEK-293T
# [5] = species on record: Homo sapiens; assay: Selectivity ratio of Ki for displacement of [3H]UR-MK299 from Y1 receptor in human SK-N-MC cells to Ki for displacement of [3H]UR-KK200 from human Y4 receptor expressed in CHO cells co-expressing Gqi5-mtAEQ; format: cell-based
# [6] = target: T1, Neuropeptide Y receptor type 4; assay: Agonist activity at human Y4R expressed in HEK293T cells co-expressing ARRB2 assessed as induction of beta-arrestin2 recruitment measured for 40 mins by D-luciferin based luminescence assay; format: cell-based, HEK-293T
# [7] = target: T1, Neuropeptide Y receptor type 4; assay: Agonist activity at human Y4 receptor expressed in CHO cells co-expressing Gqi5-mtAEQ assessed as intracellular calcium mobilization measured for 43 secs in presence of coelenterazine by aequorin-reporter gene based luminescence assay; format: functional, cell-based; settings: read-out: EC50
# [8] = target: T2, Neuropeptide Y receptor type 1 (Homo sapiens, UniProt P25929); assay: Displacement of [3H]UR-MK299 from Y1 receptor in human SK-N-MC cells; format: cell-based
# T2 sequence (P25929 whole entry): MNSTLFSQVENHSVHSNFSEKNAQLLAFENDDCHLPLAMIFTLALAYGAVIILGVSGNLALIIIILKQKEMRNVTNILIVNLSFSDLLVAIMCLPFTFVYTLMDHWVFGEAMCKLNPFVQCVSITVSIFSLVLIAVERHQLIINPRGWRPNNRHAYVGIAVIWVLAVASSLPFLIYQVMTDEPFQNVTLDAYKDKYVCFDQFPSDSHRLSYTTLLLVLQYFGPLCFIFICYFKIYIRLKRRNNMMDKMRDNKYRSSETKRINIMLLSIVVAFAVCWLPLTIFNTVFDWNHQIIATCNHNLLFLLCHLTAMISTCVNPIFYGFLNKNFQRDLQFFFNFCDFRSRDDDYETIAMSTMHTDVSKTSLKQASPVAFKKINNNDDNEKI
# [9] = target: T3, Neuropeptide Y receptor type 5 (Homo sapiens, UniProt Q15761); assay: Displacement of [3H]propionyl-pNPY from human Y5 receptor expressed in human HEC1B cells; format: cell-based
# T3 sequence (Q15761 whole entry): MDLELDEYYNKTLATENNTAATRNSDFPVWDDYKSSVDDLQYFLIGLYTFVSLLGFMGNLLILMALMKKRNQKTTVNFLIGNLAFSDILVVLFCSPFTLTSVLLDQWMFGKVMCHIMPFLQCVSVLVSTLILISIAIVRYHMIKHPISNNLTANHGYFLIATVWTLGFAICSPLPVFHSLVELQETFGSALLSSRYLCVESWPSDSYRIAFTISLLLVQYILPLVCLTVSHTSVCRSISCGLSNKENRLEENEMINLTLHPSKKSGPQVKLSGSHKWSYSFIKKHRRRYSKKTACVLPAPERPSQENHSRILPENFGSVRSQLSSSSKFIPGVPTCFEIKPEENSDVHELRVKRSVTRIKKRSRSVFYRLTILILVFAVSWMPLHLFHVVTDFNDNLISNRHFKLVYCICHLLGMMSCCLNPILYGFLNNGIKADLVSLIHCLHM
# [10] = target: T1, Neuropeptide Y receptor type 4; assay: Agonist activity at human Y4R expressed in HEK293T cells co-expressing ARRB1 assessed as induction of beta-arrestin1 recruitment measured for 40 mins by D-luciferin based luminescence assay; format: cell-based, HEK-293T; settings: read-out: EC50
# [11] = target: T4, Neuropeptide Y receptor type 2 (Homo sapiens, UniProt P49146); assay: Displacement of [3H]propionyl-pNPY from human Y2 receptor expressed in CHO cells measured after 2 hrs by microbeta liquid scintillation counting analysis; format: cell-based
# T4 sequence (P49146 whole entry): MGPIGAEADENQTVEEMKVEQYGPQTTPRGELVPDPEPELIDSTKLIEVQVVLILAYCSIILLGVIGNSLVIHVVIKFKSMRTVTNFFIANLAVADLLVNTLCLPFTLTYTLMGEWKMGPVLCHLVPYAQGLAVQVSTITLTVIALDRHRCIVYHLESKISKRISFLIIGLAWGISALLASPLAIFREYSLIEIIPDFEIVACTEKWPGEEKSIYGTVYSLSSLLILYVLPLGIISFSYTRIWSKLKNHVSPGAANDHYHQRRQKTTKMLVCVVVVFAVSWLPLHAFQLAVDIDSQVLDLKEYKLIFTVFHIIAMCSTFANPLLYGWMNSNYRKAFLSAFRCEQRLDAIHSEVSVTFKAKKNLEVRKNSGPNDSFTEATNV
# [12] = species on record: Homo sapiens; assay: Selectivity ratio of Ki for displacement of [3H]propionyl-pNPY from human Y5 receptor expressed in human HEC1B cells to Ki for displacement of [3H]UR-KK200 from human Y4 receptor expressed in CHO cells co-expressing Gqi5-mtAEQ; format: cell-based
# [13] = species on record: Homo sapiens; assay: Selectivity ratio of Ki for displacement of [3H]propionyl-pNPY from human Y2 receptor expressed in CHO cells to Ki for displacement of [3H]UR-KK200 from human Y4 receptor expressed in CHO cells co-expressing Gqi5-mtAEQ; format: cell-based
# [14] = target: T1, Neuropeptide Y receptor type 4; assay: Antagonist activity at human Y4 receptor expressed in CHO cells co-expressing Gqi5-mtAEQ assessed as inhibition of hPP-induced intracellular calcium mobilization by measuring rightward shifts of hPP concentration-response curves at 10 uM preincubated for 15 mins followed by hPP addition and …; format: functional, cell-based
# [15] = target: T1, Neuropeptide Y receptor type 4; assay: (§2) Antagonist activity at human Y4R expressed in HEK293T cells co-expressing ARRB1 assessed as inhibition of hPP-induced beta-arrestin1 recruitment at 10 uM preincubated for 20 mins followed by hPP addition and measured for 40 mins by D-luciferin based luminescence assay; format: cell-based; settings: HEK-293T
# [16] = target: T1, Neuropeptide Y receptor type 4; assay: as §1, with “mobilization at 10 uM” for “mobilization”; format: functional, cell-based
# [17] = target: T1, Neuropeptide Y receptor type 4; assay: as §2, with “recruitment by measuring rightward shifts of hPP concentration-response curves” for “recruitment”, “assay relative to hPP” for “assay”; format: cell-based; settings: HEK-293T
Ki ([1]; read-out: Ki),Ki ([1]; read-out: pKi (converted)),pKb [2],pKb [3],pKb [4],EC50 ([6]; read-out: EC50),EC50 [7],Ki ([8]; read-out: pKi (converted)),"Ki ([8]; sk-n-mc, read-out: Ki)",Ki ([9]; read-out: Ki),Ki ([9]; read-out: pKi (converted)),EC50 [10],Ki ([11]; read-out: pKi (converted)),"Ki ([11]; cho, read-out: Ki)",Ki ([8]; read-out: Ki),Compound,Ratio Ki [5],Ratio Ki [12],Ratio Ki [13],other results
97 nM,89.1 nM,7.22,6.85,7.02,,,,,,,,,,,Ac-RYRWRY-NH2,,,,
2.8 nM,,,,,51 nM,110 nM,> 1000 nM,> 1000 nM,> 10000 nM,> 10000 nM,160 nM,> 3160 nM,,,Ac-RGWRLRY-NH2,> 360,> 3600,> 1070,Ki ([11]; read-out: Ki): > 3000 nM
38 nM,30.9 nM,,,,360 nM,380 nM,> 1000 nM,> 1000 nM,> 1000 nM,> 1000 nM,520 nM,> 1000 nM,> 1000 nM,,Ac-RGYRLRW-NH2,> 26,> 26,26,
2 nM,,,,,38 nM,100 nM,> 3160 nM,,> 3000 nM,> 3160 nM,51 nM,> 10000 nM,> 10000 nM,> 3000 nM,CC(C)C[C@H](NC(=O)[C@H](CCCNC(=N)N)NC(=O)[C@H](Cc1ccc(O)cc1)NC(=O)[C@@H](N)CCCNC(=N)N)C(=O)N[C@@H](CCCNC(=N)N)C(=O)N[C@@H](Cc1ccc(O)cc1)C(N)=O,> 1500,> 1500,> 5000,
4 nM,,,,,430 nM,620 nM,> 316 nM,,> 10000 nM,> 10000 nM,460 nM,> 3160 nM,,> 300 nM,CC(C)C[C@H](NC(=O)[C@H](CCCNC(=N)N)NC(=O)[C@H](Cc1ccc(O)cc1)NC(=O)[C@H](CCCNC(=N)N)NC(=O)CCC(=O)O)C(=O)N[C@@H](CCCNC(=N)N)C(=O)N[C@@H](Cc1ccc(O)cc1)C(N)=O,> 75,> 2500,> 750,Ki ([11]; read-out: Ki): > 3000 nM
29 nM,,7.57,7.01,6.96,,,> 3160 nM,,> 3000 nM,> 3160 nM,,> 10000 nM,> 10000 nM,> 3000 nM,Ac-RGYRWRY-NH2,> 100,> 100,> 340,
250 nM,240 nM,6.46,5.8,6.1,,,,,,,,,,,Ac-RGYRWRW-NH2,,,,
28 nM,26.9 nM,7.32,6.87,7.14,,,> 3160 nM,,> 10000 nM,> 10000 nM,,> 3160 nM,,> 3000 nM,H-RYRWRY-NH2,> 110,> 360,> 110,fold change (FC) [14]: 2; pKb [15]: 6.63; pKb [16]: 7.05; Ki ([11]; read-out: Ki): > 3000 nM; fold change (FC) [17]: 2
1.7 nM,1.62 nM,,,,140 nM,250 nM,> 1000 nM,> 1000 nM,> 1000 nM,> 1000 nM,160 nM,> 10000 nM,> 10000 nM,,H-WRLRY-NH2,> 590,> 590,> 5900,EC50 ([6]; read-out: pEC50 (converted)): 148 nM
8.9 nM,8.71 nM,,,,320 nM,550 nM,> 1000 nM,> 1000 nM,> 1000 nM,> 1000 nM,550 nM,> 10000 nM,> 10000 nM,,Ac-RFRLRY-NH2,> 110,> 110,> 1100,
160 nM,,6.91,5.87,6.22,,,,,,,,,,,CC(=O)N[C@@H](CCCNC(=N)N)C(=O)NC(CCCN)C(=O)N[C@@H](Cc1ccc(O)cc1)C(=O)N[C@@H](CCCNC(=N)N)C(=O)N[C@@H](Cc1c[nH]c2ccccc12)C(=O)N[C@@H](CCCNC(=N)N)C(=O)N[C@@H](Cc1ccc(O)cc1)C(N)=O (stereo not given in full) (Ac-R[ξOrn]YRWRY-NH2),,,,
4.3 nM,,,,,140 nM,230 nM,> 1000 nM,> 1000 nM,> 1000 nM,> 1000 nM,170 nM,> 1000 nM,> 1000 nM,,CC(=O)N[C@@H](CCCNC(=N)N)C(=O)NC(CCCN)C(=O)NCC(=O)N[C@@H](Cc1c[nH]c2ccccc12)C(=O)N[C@@H](CCCNC(=N)N)C(=O)N[C@@H](CC(C)C)C(=O)N[C@@H](CCCNC(=N)N)C(=O)N[C@@H](Cc1ccc(O)cc1)C(N)=O (stereo not given in full) (Ac-R[ξOrn]GWRLRY-NH2),> 230,> 230,> 230,
